Test results: paper PMC8657459, “Rosmarinic Acid and Sodium Citrate Have a Synergistic Bacteriostatic Effect against Vibrio Species by Inhibiting Iron Uptake” (International Journal of Molecular Sciences, 2021)

Biological target: T1, VmFbpA (ferric ion-binding protein A) (Vibrio metschnikovii, UniProt A0A9X0R8I3)
T1 construct: gene H8Q88_11990; WP_004394209.1 without the signal peptide '[…]'; 6× His-tag-free apo VmFbpA
Assay: ITC of RA into apo VmFbpA (single-site model); supported by UV-vis peak shift and Fe3+ pull-down inhibition by ICP-MS (IC50 […])

T1 sequence (A0A9X0R8I3 entry or part of it): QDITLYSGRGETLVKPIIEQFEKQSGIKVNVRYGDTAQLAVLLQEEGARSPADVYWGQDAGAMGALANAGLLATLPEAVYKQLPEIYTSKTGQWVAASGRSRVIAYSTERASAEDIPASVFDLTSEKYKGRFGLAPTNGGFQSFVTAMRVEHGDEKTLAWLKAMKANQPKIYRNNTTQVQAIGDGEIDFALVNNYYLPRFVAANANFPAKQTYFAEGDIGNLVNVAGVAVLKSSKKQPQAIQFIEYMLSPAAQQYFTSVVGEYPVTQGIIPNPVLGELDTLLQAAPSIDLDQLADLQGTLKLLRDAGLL

## O=C(/C=C/c1ccc(O)c(O)c1)O[C@H](Cc1ccc(O)c(O)c1)C(=O)O [RA, rosmarinic acid]
  Kd: 8 ± 1 µM
